Measured values reported in article PMC8102418 (iScience, 2021).
No end group written: not given here.

Tests used:
CLK1 = details: ref Batson et al., 2017; cited from earlier work
SRPK2 = details: ref Batson et al., 2017; cited from earlier work
SRPK1 = SRPK1 (Homo sapiens, UniProt Q96SB4); assay: In vitro radioactive kinase assay, SRSF1 phosphorylation by SRPK1; format: biochemical; details: 50 μM [32P]ATP, different inhibitor concentrations
[1] = tested on: interaction between SRPK1 and SRSF1; assay: In vitro GST pull-down of GST-SRSF1 with SRPK1ΔNS3; format: binding; details: 500 nM GST-SRSF1, 500 nM SRPK1, 4°C 3 h, SDS-PAGE, Coomassie Blue
SRPK1 (SRPK1ΔNS3) = SRPK1 (SRPK1ΔNS3) (Homo sapiens, UniProt Q96SB4); assay: Isothermal titration calorimetry; format: binding; details: SD

O=C(Nc1cc(C(F)(F)F)ccc1N1CCN(Cc2ccccn2)CC1)c1ccc(-c2ccncc2)o1 [SPHINX31]
affinity for CLK1 lower than that of SRPK1 (CLK1): 50 fold
affinity for SRPK2 lower than that of SRPK1 (SRPK2): 50 fold

GRKKRRQRRRPQSWQDLKDH [control peptide]
inhibition of SRSF1 phosphorylation by SRPK1 (in words) (SRPK1): did not inhibit
inhibition of the binding of GST-SRSF1 and SRPK1ΔNS3 (GST pull-down) [1]: did not inhibit

RERARTR [7-mer, R-E-R-A-R-T-R]
Kd (SRPK1 (SRPK1ΔNS3)): 112 ± 9.9 µM
